≈ marks a conversion by molar mass, not a printed value. Read-outs that look alike come from different tables or passages of the source.
What was measured:
[1] = Solubility per "Testing Method For Determining The Solubility", Chinese Pharmacopoeia 2005; type: physicochemical; settings: 25±1° C., water
From the text: (Testing method is according to the “Testing Method For Determining The Solubility” in The Chinese Pharmacopoeia 2005, the example section of the second part, the last line on the first page to the first line on the second.)
2. […] It can ensure that the drug can be steadily released after taking orally. The drug can mix with one's internal environment easily after release, which renders the steady absorption of the drug, and the achievement of a relatively stable bioavailability.

[2] = Solubility measurement: excess sample shaken in purified water for 48 hours, filtered supernatant measured; type: physicochemical; settings: thermodynamic from solid, shaken 48 hours
Description: Solubility measurement: excess crystalline FFD solid dispersion was put into a cone-shaped bottle with a stopper. After 100 ml purified water was added, the solution was shaken at a constant of 25° C. and 37° C. separately for 48 hours. The filtered supernatants were diluted and their concentrations were measured thrice for each sample.

[3] = tested on: renal interstitial cell; settings: cited from earlier work

SMILES | solubility [1] | solubility at 48 h ([2]; 25° C.) [µg/mL] | solubility at 48 h ([2]; 37° C.) [µg/mL] | solubility ([1]; 25 °C, thermodynamic from solid, read-out: solubility) [µg/mL] | effect on anti-fibrosis [3]
Cc1ccc(=O)n(-c2cccc(F)c2)c1 [crystalline FFD, 1-(3-fluorophenyl)-5-methyl-2-(1H)-pyridone] | 2.44˜2.55 mg/ml | 2440 to 2550 (≈ 12 to 12.5 mM) | 3140 to 3160 | – | –
Cc1ccc(=O)n(-c2cccc(F)c2)c1 [FFD, 1-(3-fluorophenyl)-5-methyl-2-(1H)-pyridone] | – | – | – | 1410 to 1490 (≈ 6.94 to 7.33 mM) | good effect on anti-fibrosis

— patent publication US8232408B2, “Crystalline 1-(3-fluorophenyl)-5-methyl-2-(1H)pyridone, the preparation methods, compositions and applications thereof” (Sunshine Lake Pharma Co., Ltd., priority 2008, dated 2012)
